The values below come from US12459951B2, “Compounds that interact with RAS superfamily proteins for treatment of cancers, inflammatory diseases, rasopathies, and fibrotic disease” (SHY Therapeutics, LLC, priority 2022, dated 2025).

For orientation: IC50 means the point on the concentration scale where inhibition reaches its midpoint.

The structures appear in SMILES notation. pIC50: −log10 of the molar value. Read-outs that look alike come from different tables or passages of the source.

In test [1] the test system is active/cleaved caspase 3. As to the kind of experiment: Cell-based caspase activation assay (western blot). More on the design: species or system human. Here is the method:
(§1) Biological Example 4: Puma Expression and Caspases Activation Assay
(§2) Protocols for Cell-Based Puma Expression and Caspase Activation Assays
(§3) Cell lines: All human tumor-derived cancer cell lines were purchased from American Type Culture Collection. Human tumor-derived cancer cell lines Panc-1 (expressing KRas G12D mutant), MiaPaca-2 (expressing KRas G12C mutant), A549 (expressing KRas G12S mutant), and A375 (expressing wild type KRas) were grown in complete DMEM-High Glucose medium and NCI-H1975 (expressing wild type KRas), MM.1R (expressing wild type KRas) and IM.9 (expressing wild type KRas) were grown in RPMI1640 medium. Human tumor-derived cancer cell line BT-549 (expressing wild type KRas) was grown in RPMI1640 medium with 11.8U insulin. All mediums were supplemented with penicillin (100 U/mL), streptomycin (100 μg/mL), and 10% heat-inactivated FBS at 37° C. in a humidified incubator with 5% CO2.
(§4) Method: Cells were plated at 300,000 to 800,000 cells/well density in a 6-well plate in the presence of 10% FBS. The next day small molecules to be tested were added to the cells in the final concentration of 3 μM in the presence of 0.3% DMSO for 48 hours incubation at 37° C. For IC50 value determination, serial dilutions of compounds were added to cells under the same conditions. Following 48 hours of incubation cells were lysed with lysis buffer containing 1% Triton X-100, EDTA, and Halt™ Protease & Phosphatase Inhibitor Cocktail (Thermo Scientific). Protein concentration was assessed by BCA protein assay (Thermo Scientific). Increase expression of PUMA and active/cleaved forms of caspase 3, caspase 6 and caspase 9 were detected by western blot.
(§5) Western blot protocol: Equal amounts of protein (15-50 μg) were separated by SDS-PAGE and transferred to nitrocellulose membranes (Invitrogen by Thermo Fisher Scientific). The membrane was stained with Ponceau S Stain (Boston BioProducts) to verify uniform protein loading. Membranes were blocked with 10% milk and expression levels of PUMA was assessed by incubating overnight at 4° C. with the antibody PUMA (D30C10) from Cell Signaling Technology (#12450) and active/cleaved forms of caspase 3, caspase 6 and caspase 9 by incubating overnight at 4° C. with the following antibodies: cleaved caspase-3 (Asp175) (5A1E), cleaved caspase-6 (Asp162) and cleaved caspase-9 (Asp330) (D2D4) (all antibodies from Cell Signaling Technology). Then the membranes were incubated with HRP-conjugated secondary antibody (Jackson Immunoresearch, West Grove, PA). Bands were incubated in Amersham ECL Prime Western Blotting Detection Reagent (GE Healthcare) and visualized using the ChemiDoc MP imaging system (Bio-Rad).
For orientation: A western blot detects proteins with antibodies after separation by electrophoresis.

The test system of test [2] is active/cleaved caspase 9. Kind of test: Cell-based caspase activation assay (western blot). Details: species or system human. As for the experimental part: as §1, §2, §3, §4, §5
Test [3] deals with BT-549 (expressing wild type KRAS). Kind of test: Proliferation Assay (Cell Viability Assay). To be noted: Homo sapiens; for IC50: BT-549, Proliferation assay, BT549, read-out: BT549 IC50 (nM) TNBC. The format is cell-based. As for the experimental part:
(§6) Cell lines: these Human tumor-derived cell lines were purchased from American Type Culture Collection. Human tumor-derived pancreatic cancer cell line MiaPaca-2 (expressing KRAS G12C mutant) and Panc-1 (expressing KRas G12D mutant), and Human non-small cell lung cancer (NSCLC) cell line A549 (expressing KRas G12S mutant), and Human melanoma cell line A375 (wild type Kras) were grown in complete DMEM-High Glucose medium. Human tumor-derived pancreatic cancer cell lines SU86.86 (expressing KRas G12D mutant), BxPC3 (expressing wild type K-Ras), and Human non-small cell lung cancer (NSCLC) cell lines NCI-H441 (expressing KRas G12S mutant), NCI-H1975 (expressing wild type KRas), NCI-H358 (expressing KRas G12C mutant), NCI-H1299 (expressing NRas Q61H mutant), and Human colon cancer cell line SW-620 (expressing KRas G12V mutant), Human triple negative breast cancer cell line HCC-1806 (expressing wild type KRas), and Human tumor-derived multiple myeloma cell line MM.1R (expressing wild type KRAS), were grown in RPMI 1640 medium. Human tumor-derived breast cancer cell line BT-549 (expressing wild type KRAS) was grown in RPMI 1640 medium in the presence of 11.8U insulin. Human tumor-derived pancreatic cancer cell line HPAF-II (expressing KRas G12D mutant), Human triple negative breast cancer cell line BT-20 (expressing wild type KRas), and Human colon cancer cell line LS123 (expressing KRas G12S mutant), were grown in EMEM medium. Human tumor-derived pancreatic cancer cell line CF-PAC1 (expressing KRas G12V mutant) was frown in IMDM medium, and Human colon cancer cell line HT29 (expressing wild type KRas) was grown in McCoy's 5A medium. The colon cancer cell line GP2d (expressing KRas G12D mutant) was purchased from MilliporeSigma and grown in DMEM-High Glucose medium. All cell lines were supplemented with penicillin (100 U/mL), streptomycin (100 μg/mL), and 10% heat-inactivated FBS at 37° C. in a humidified incubator with 5% CO2.
(§7) Method: Cells were plated at 2000 to 5000 cells/well density in 96-wells plate and cultured overnight. Small molecules that were tested were added to the cells in the final concentration of 10 μM in the presence of 0.3% DMSO and 10% FBS, and incubated for 2-4 days at 37° C. in a humidified incubator with 5% CO2. For IC50 value determination, serial dilutions of compounds were added to cells under the same conditions.
(§8) Assay: At the end of the incubation period, cell viability was determined using the CellTiter 96® Aqueous One Solution Cell Proliferation Assay according to manufacturer specifications (Promega, Madison, WI). The percentage of small molecules inhibition of cellular proliferation was calculated from raw data.

The test system of test [4] is NCI-H358 (expressing KRas G12C mutant). Kind of test: Proliferation Assay (Cell Viability Assay). The settings on record: Homo sapiens; for IC50: Proliferation assay, NCI-H358, read-out: NCI-H358 IC50 (nM) NSCLC. It counts as cell-based. As for the experimental part: as §6, §7, §8
The subject of test [5] is A375 (wild type Kras). As to the kind of experiment: Proliferation Assay (Cell Viability Assay). The settings on record: Homo sapiens, A-375; for IC50: Proliferation assay, A375, read-out: A375 IC50 (nM) Melanoma. It counts as cell-based. Here is the method: as §6, §7, §8
The subject of test [6] is GP2d (expressing KRas G12D mutant). As to the kind of experiment: Proliferation Assay (Cell Viability Assay). The format is cell-based. The settings on record: Homo sapiens; for IC50: Proliferation assay, read-out: GP2d IC50 (nM) Colorectal. As for the experimental part:
as §6, §7, §8

Test [7] concerns MM.1R (expressing wild type KRAS). As to the kind of experiment: Proliferation Assay (Cell Viability Assay). The settings on record: Homo sapiens, read-out: MM.1R IC50 (nM) Multiple Myloma. It counts as cell-based. As for the experimental part: as §6, §7, §8

For `COc1cc(Nc2nc(-c3nccn3C)nn3cc(-c4ccn(C(C)C)n4)c(C)c23)ncn1` [Compound 6, 6-(1-Isopropyl-1H-pyrazol-3-yl)-N-(6-methoxypyrimidin-4-yl)-5-methyl-2-(1-methyl-1H-imidazol-2-yl)pyrrolo[2,1-f][1,2,4]triazin-4-amine], the “Caspase 3 activation” value in test [1] (A375, after 48 hours) is recorded as “yes”; in test [1] (A549, after 48 hours) it was “yes”; in test [1] (BT-549, after 48 hours), “yes”; in test [1] (MiaPaca2, after 48 hours), “yes”; in test [1] (Panc-1, after 48 hours) it was “yes”. In addition, the “Caspase 9 activation” value in test [2] (A375, after 48 hours) is on record as “yes”; in test [2] (A549, after 48 hours), “yes”; in test [2] (BT-549, after 48 hours) it was “yes”; in test [2] (MiaPaca2, after 48 hours) it was “yes”. The IC50 in test [3] is above 50 nM; in test [4], 10 to 50 nM; in test [5] it was above 50 nM; in test [6] it was above 50 nM; in test [7], 1 to 10 nM. The pIC50 in test [3] (BT-549, Breast (TNBC), KRas WT, read-out: Proliferation assay IC50) is above 6.82; in test [4] (NCI-H358, NSCLC, KRas G12C, read-out: Proliferation assay IC50), above 6.82; in test [5] (A375, melanoma, KRas WT, read-out: Proliferation assay IC50), above 6.82; in test [6] (colon, KRas G12D, read-out: Proliferation assay IC50), 6.30 to 6.82.

As to `Cc1c(-c2ccn(C)n2)cn2nc(-c3nccn3C)nc(Nc3cc4n(n3)CCC4)c12` [Compound 100, N-(5,6-Dihydro-4H-pyrrolo[1,2-b]pyrazol-2-yl)-5-methyl-2-(1-methyl-1H-imidazol-2-yl)-6-(1-methyl-1H-pyrazol-3-yl)pyrrolo[2,1-f][1,2,4]triazin-4-amine], the IC50 is 10 to 50 nM in test [3]; above 50 nM in test [4]; above 50 nM in test [5]; 10 to 50 nM in test [6]; below 1 nM in test [7].

Regarding `Cc1c(-c2ccn(C)n2)cn2nc(-c3nccn3C)nc(Nc3cc4n(n3)CCO4)c12` [Compound 124, N-(5-Methyl-2-(1-methyl-1H-imidazol-2-yl)-6-(1-methyl-1H-pyrazol-3-yl)pyrrolo[2,1-f][1,2,4]triazin-4-yl)-2,3-dihydropyrazolo[5,1-b]oxazol-6-amine], the “Caspase 3 activation” value is “yes” in test [1] (A375, after 48 hours); “yes” in test [1] (BT-549, after 48 hours); “yes” in test [1] (HCC1806, after 48 hours); “yes” in test [1] (MiaPaca2, after 48 hours); “yes” in test [1] (NCI-H358, after 48 hours). Moreover, the “Caspase 9 activation” value in test [2] (A375, after 48 hours) is listed as “yes”; in test [2] (BT-549, after 48 hours), “yes”; in test [2] (MiaPaca2, after 48 hours) it was “yes”. The IC50 in test [3] is 1 to 10 nM; in test [4], 1 to 10 nM; in test [5] it was 1 to 10 nM; in test [6], 1 to 10 nM; in test [7] it was below 1 nM.

Take `COc1ccnc(Nc2nc(-c3nccn3C)nn3cc(-c4ccn(C)n4)c(C)c23)c1` [Compound 102, N-(4-Methoxypyridin-2-yl)-5-methyl-2-(1-methyl-1H-imidazol-2-yl)-6-(1-methyl-1H-pyrazol-3-yl)pyrrolo[2,1-f][1,2,4]triazin-4-amine]: the “Caspase 3 activation” value in test [1] (A375, after 48 hours) was “yes”; in test [1] (A549, after 48 hours), “yes”; in test [1] (IM.9, after 48 hours) it was “yes”; in test [1] (MM.1R, after 48 hours), “yes”; in test [1] (MiaPaca2, after 48 hours), “yes”; in test [1] (NCI-H1975, after 48 hours), “yes”. Besides, the “Caspase 9 activation” value in test [2] (A375, after 48 hours) is “yes”; in test [2] (A549, after 48 hours) it was “yes”; in test [2] (IM.9, after 48 hours), “yes”; in test [2] (MM.1R, after 48 hours) it was “yes”; in test [2] (MiaPaca2, after 48 hours), “yes”; in test [2] (NCI-H1975, after 48 hours), “yes”. Besides, the IC50 in test [3] was 1 to 10 nM; in test [4], 1 to 10 nM; in test [5], 1 to 10 nM; in test [6] it was 10 to 50 nM; in test [7], below 1 nM.

Regarding `Cc1c(-c2ccn(C)n2)cn2nc(-c3nccn3C)nc(Nc3cc(C4CC4)[nH]n3)c12` [Compound 104, N-(5-Cyclopropyl-1H-pyrazol-3-yl)-5-methyl-2-(1-methyl-1H-imidazol-2-yl)-6-(1-methyl-1H-pyrazol-3-yl)pyrrolo[2,1-f][1,2,4]triazin-4-amine], the IC50 is 10 to 50 nM in test [3]; above 50 nM in test [4]; above 50 nM in test [5]; 10 to 50 nM in test [6]; below 1 nM in test [7].
